According to patent US12516051B1, “Small molecule degraders and fluorescent probes of PXR” (St. Jude Children's Research Hospital, Inc., priority 2024, dated 2026):
Like-named read-outs stand apart in the source and are kept apart here.

Test system: SNU-C4 HiBiT-PXR KI cells
Experiment: Cytotoxicity, CellTiter-Glo Luminescent Cell Viability Assay
Assay type: cell-based
Method: An Echo 655T Acoustic Liquid Handler was used to dispense 75 nL/well of DMSO or PROTAC dilution into white tissue culture-treated 384-well plates. For 24 h cytotoxicity, 25 μL assay media containing 1×10^4 cells was added to each well to match the conditions for the degradation assays. For 72 h cytotoxicity, 25 μL RPMI with 10% FBS containing 2.5×10^3 cells was added to each well to match normal growth conditions. […] After 24 h or 72 h, the CellTiter-Glo Luminescent Cell Viability Assay (Promega, cat. #G7572) and an EnVision microplate reader were used to assess cytotoxicity. DMSO wells with cells served as positive controls, and wells without cells served as negative controls. The percent cell viability for each well was calculated using equation 5,

[1] = read-out: 24 h CC50, Table 4, 24 h treatment
[2] = read-out: 72 h CC50, Table 4, 72 h treatment

Row | SMILES | CC50 (read-out: 24 h CC50, Table 3, 24 h treatment) | CC50 (read-out: 72 h CC50, Table 3, 72 h treatment) | CC50 [1] | CC50 [2]
1 | COc1cc(OCCCCCCOCCOCCOCCOCCOCCOCC(=O)N[C@H](C(=O)N2C[C@H](O)C[C@H]2C(=O)NCc2ccc(-c3scnc3C)cc2)C(C)(C)C)c(C)cc1-n1nnc(S(=O)(=O)c2ccc(C(C)(C)C)cc2)c1C [Compound 34, (2S,4R)-1-((S)-2-(tert-Butyl)-27-(4-(4-((4-(tert-butyl)phenyl)sulfonyl)-5-methyl-1H-1,2,3-triazol-1-yl)-5-methoxy-2-methylphenoxy)-4-oxo-6,9,12,15,18,21-hexaoxa-3-azaheptacosanoyl)-4-hydroxy-N-(4-(4-methylthiazol-5-yl)benzyl)pyrrolidine-2-carboxamide] | > 30 µM | > 30 µM | – | –
2 | CCCCOc1ccc(C(C)(C)C)cc1NC(=O)c1nnn(-c2cc(C)c(OCCCCCCOCCOCC(=O)N[C@H](C(=O)N3C[C@H](O)C[C@H]3C(=O)NCc3ccc(-c4scnc4C)cc3)C(C)(C)C)cc2OC)c1C [Compound 35, N-(2-Butoxy-5-(tert-butyl)phenyl)-1-(4-((6-(2-(2-(((S)-1-((2S,4R)-4-hydroxy-2-((4-(4-methylthiazol-5-yl)benzyl)carbamoyl)pyrrolidin-1-yl)-3,3-dimethyl-1-oxobutan-2-yl)amino)-2-oxoethoxy)ethoxy)hexyl)oxy)-2-methoxy-5-methylphenyl)-5-methyl-1H-1,2,3-triazole-4-carboxamide] | – | – | > 30 µM | > 30 µM
3 | CCC[C@H](CC)Oc1ccc(C(C)(C)C)cc1NC(=O)c1nnn(-c2cc(C)c(OCCCCCCOCCOCC(=O)N[C@H](C(=O)N3C[C@H](O)C[C@H]3C(=O)NCc3ccc(-c4scnc4C)cc3)C(C)(C)C)cc2OC)c1C [Compound 36] | – | – | > 30 µM | > 30 µM
4 | CCC[C@H](CC)Oc1ccc(C(C)(C)C)cc1NC(=O)c1nnn(-c2cc(OC)c(OCCCCCCOCCOCC(=O)N[C@H](C(=O)N3C[C@H](O)C[C@H]3C(=O)NCc3ccc(-c4scnc4C)cc3)C(C)(C)C)cc2OC)c1C [Compound 37, N-(5-(TERT-BUTYL)-2-(((S)-HEXAN-3-YL)OXY)PHENYL)-1-(4-((6-(2-(2-(((S)-1-((2S,4R)-4-HYDROXY-2-((4-(4 METHYLTHIAZOL-5-YL)BENZYL)CARBAMOYL)PYRROLIDIN-1-YL)-3,3-DIMETHYL-1-OXOBUTAN-2-YL)AMINO)-2 OXOETHOXY)ETHOXY)HEXYL)OXY)-2,5-DIMETHOXYPHENYL)-5-METHYL-1H-1,2,3-TRIAZOLE-4-CARBOXAMIDE] | – | – | > 30 µM | > 30 µM
5 | CCC[C@H](CC)Oc1ccc(C(=O)OC)cc1NC(=O)c1nnn(-c2cc(OC)c(OCCCCCCOCCOCC(=O)N[C@H](C(=O)N3C[C@H](O)C[C@H]3C(=O)NCc3ccc(-c4scnc4C)cc3)C(C)(C)C)cc2OC)c1C [Compound 38, METHYL 4-(((S)-HEXAN-3-YL)OXY)-3-(1-(4-((6-(2-(2-(((S)-1-((2S,4R)-4-HYDROXY-2-((4-(4-METHYLTHIAZOL-5-YL)BENZYL)CARBAMOYL)PYRROLIDIN-1-YL)-3,3-DIMETHYL-1-OXOBUTAN-2-YL)AMINO)-2-OXOETHOXY)ETHOXY)HEXYL)OXY)-2,5-DIMETHOXYPHENYL)-5-METHYL-1H-1,2,3-TRIAZOLE-4-CARBOXAMIDO)BENZOATE] | – | – | > 30 µM | > 30 µM
